From US9321764B2, “Dihydro-pyrrolopyridinone inhibitors” (AbbVie Inc., priority 2013, dated 2016)

Assays:
[1] = system: breast cancer cell line MX-1; assay: MX-1 cell line proliferation assay; format: cell-based; conditions: Homo sapiens, MX1, 72 h, MX-1 cells, 3-day proliferation assay, Cell Titer Glo; read-out: Cellular proliferation EC50
Description: The impact of compounds of the Examples on cancer cell proliferation was determined using the breast cancer cell line MX-1 (ATCC) in a 3-day proliferation assay and the data are reported in Table 1. MX-1 cells were maintained in RPMI 1640 medium (Sigma) supplemented with 10% FBS at 37° C. and an atmosphere of 5% CO2. For compound testing, MX-1 cells were plated in 96-well black bottom plates at a density of 5000 cells/well in 90 μL of culture media and incubated at 37° overnight to allow cell adhesion and spreading. Compound dilution series were prepared in DMSO via a 3-fold serial dilution from 3 mM to 0.1 μM. The DMSO dilution series were then diluted 1:100 in phosphate buffered saline, and 10 μL of the resulted solution were added to the appropriate wells of the MX-1 cell plate. The final compound concentrations in the wells were 3, 1, 0.3, 0.1, 0.03, 0.01, 0.003, 0.001, 0.0003 and 0.0001 μM.
Luminescence readings from the Cell Titer Glo assay were normalized to the DMSO treated cells and analyzed using the GraphPad Prism software with sigmoidal curve fitting to obtain EC50s. The minimum significant ratio (MSR) was determined to evaluate assay reproducibility (Eastwood et al., (2006) J Biomol Screen, 11: 253-261).

[2] = target: T1, BRD4 (BDI_K57-E168) (Homo sapiens, UniProt O60885); assay: TR-FRET bromodomain binding assay, first bromodomain of BRD4; conditions: His-tagged BD1, 100 nM Alexa647 probe; TR-FRET protocol A-E given per row
T1 construct: BD1: amino acids K57-E168; made in house
Summary of the method: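 His-tagged BRD4 BD1 (K57-E168), 8 nM, with 1 nM Eu-anti-His antibody and 100 nM Alexa647-labelled BET-inhibitor probe in pH 6.0 phosphate buffer, 2% DMSO. TR-FRET read after 1 h at room temperature. IC50 from 4-parameter fit, converted to Ki using probe Kd and concentration.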

[3] = target: T2, BRD4 (BDII_E352-M457) (Homo sapiens, UniProt O60885); assay: TR-FRET bromodomain binding assay, second bromodomain of BRD4; conditions: His-tagged BD2, 30 nM Alexa647 probe; TR-FRET protocol A-E given per row
T2 construct: proliferation; Protocol; made in house
Summary of the method: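 His-tagged BRD4 BD2 ([…]) competed against an Alexa647-labelled BET-inhibitor probe in TR-FRET. Buffer was 20 mM sodium phosphate pH 6.0, 50 mM NaCl, 1 mM EDTA, 0.01% Triton X-100, 1 mM DTT, with method D DMSO series of 2.5 mM–800 nM (stock range). IC50 from 4-parameter fit, Ki from probe Kd and concentration.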

EC50 [1]	Ki [2]	Ki [3]	SMILES
506 nM	73 nM	1340 nM	CCS(=O)(=O)Nc1ccc(OCC2CC2)c(-c2cn(C)c3c(=O)[nH]ccc23)c1C [Example 14, N-[4-(cyclopropylmethoxy)-2-methyl-3-(1-methyl-7-oxo-6,7-dihydro-1H-pyrrolo[2,3-c]pyridin-3-yl)phenyl]ethanesulfonamide]
176 nM	16 nM	80 nM	Cn1cc(-c2cc(S(C)(=O)=O)ccc2Oc2ccc(F)c(F)c2)c2cc[nH]c(=O)c21 [Example 19, 3-[2-(3,4-difluorophenoxy)-5-(methylsulfonyl)phenyl]-1-methyl-1,6-dihydro-7H-pyrrolo[2,3-c]pyridin-7-one]
181 nM	18 nM	165 nM	Cn1cc(-c2cc(S(C)(=O)=O)ccc2OCC2CC2)c2cc[nH]c(=O)c21 [Example 20, 3-[2-(cyclopropylmethoxy)-5-(methylsulfonyl)phenyl]-1-methyl-1,6-dihydro-7H-pyrrolo[2,3-c]pyridin-7-one]
384 nM	15 nM	120 nM	Cn1cc(-c2cc(S(C)(=O)=O)ccc2OC2CCOC2)c2cc[nH]c(=O)c21 (stereo not drawn) [Example 22, 1-methyl-3-[5-(methylsulfonyl)-2-(tetrahydrofuran-3-yloxy)phenyl]-1,6-dihydro-7H-pyrrolo[2,3-c]pyridin-7-one]
256 nM	13 nM	117 nM	Cn1cc(-c2cc(S(C)(=O)=O)ccc2OCC2CCOC2)c2cc[nH]c(=O)c21 (stereo not drawn) [Example 23, 1-methyl-3-[5-(methylsulfonyl)-2-(tetrahydrofuran-3-ylmethoxy)phenyl]-1,6-dihydro-7H-pyrrolo[2,3-c]pyridin-7-one]
231 nM	17 nM	89 nM	Cn1cc(-c2cc(S(C)(=O)=O)ccc2OC2CCOCC2)c2cc[nH]c(=O)c21 [Example 24, 1-methyl-3-[5-(methylsulfonyl)-2-(tetrahydro-2H-pyran-4-yloxy)phenyl]-1,6-dihydro-7H-pyrrolo[2,3-c]pyridin-7-one]
123 nM	7 nM	60 nM	Cn1cc(-c2cc(S(C)(=O)=O)ccc2OC2CCCOC2)c2cc[nH]c(=O)c21 (stereo not drawn) [Example 26, 1-methyl-3-[5-(methylsulfonyl)-2-(tetrahydro-2H-pyran-3-yloxy)phenyl]-1,6-dihydro-7H-pyrrolo[2,3-c]pyridin-7-one]
176 nM	8 nM	32 nM	Cn1cc(-c2cc(S(C)(=O)=O)ccc2OCC(C)(C)C)c2cc[nH]c(=O)c21 [Example 27, 3-[2-(2,2-dimethylpropoxy)-5-(methylsulfonyl)phenyl]-1-methyl-1,6-dihydro-7H-pyrrolo[2,3-c]pyridin-7-one]
129 nM	9.3 nM	53 nM	Cn1cc(-c2cc(S(C)(=O)=O)ccc2OCC2CCC2)c2cc[nH]c(=O)c21 [Example 28, 3-[2-(cyclobutylmethoxy)-5-(methylsulfonyl)phenyl]-1-methyl-1,6-dihydro-7H-pyrrolo[2,3-c]pyridin-7-one]
191 nM	12 nM	89 nM	Cn1cc(-c2cc(S(C)(=O)=O)ccc2OCC2(C)CC2)c2cc[nH]c(=O)c21 [Example 29, 1-methyl-3-{2-[(1-methylcyclopropyl)methoxy]-5-(methylsulfonyl)phenyl}-1,6-dihydro-7H-pyrrolo[2,3-c]pyridin-7-one]
> 3000 nM	45 nM	312 nM	Cn1cc(-c2cc(S(C)(=O)=O)ccc2OCC2COC2)c2cc[nH]c(=O)c21 [Example 30, 1-methyl-3-[5-(methylsulfonyl)-2-(oxetan-3-ylmethoxy)phenyl]-1,6-dihydro-7H-pyrrolo[2,3-c]pyridin-7-one]
398 nM	21 nM	87 nM	Cn1cc(-c2cc(S(C)(=O)=O)ccc2OCC2CCOCC2)c2cc[nH]c(=O)c21 [Example 31, 1-methyl-3-[5-(methylsulfonyl)-2-(tetrahydro-2H-pyran-4-ylmethoxy)phenyl]-1,6-dihydro-7H-pyrrolo[2,3-c]pyridin-7-one]
